# Experiments:
# [1] = biological target: T1, Tsg101-UEV (Tsg101 amino acids 1-145) (Homo sapiens, UniProt Q99816); assay: Fluorescence thermal shift (FTS) assay, binding to Tsg101-UEV
# T1 sequence (Q99816 1-145): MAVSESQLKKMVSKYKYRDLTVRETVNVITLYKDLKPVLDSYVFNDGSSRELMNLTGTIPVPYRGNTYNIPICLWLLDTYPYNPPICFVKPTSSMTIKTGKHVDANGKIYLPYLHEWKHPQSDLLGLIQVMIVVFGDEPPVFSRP
# Protocol: The fluorescence-based thermal shift assay is based on the observation that a protein unfolds upon heating, exposing the hydrophobic residues within its tertiary structure. The unfolding temperature (Tm) is determined by the protein's primary sequence and solution environment. The FTS assay uses a fluorescent dye sensitive to a hydrophobic environment to probe protein stability and its modulation by small molecule ligands. The dye has a low fluorescence quantum yield when in a polar environment. Once in contact with the hydrophobic core normally buried within a folded protein that has become exposed during the thermal unfolding (melting) process, the quantum yield of the dye increases, thus providing a reporting signal. Furthermore, a protein's stability can be affected by ligand binding, resulting in an increase or decrease in its melting temperature. FTS assay uses the Tm shift upon binding of a ligand to identify hit compounds for drug discovery.
# We screened chemical compounds using a fluorescence thermal shift (FTS) assay (27, 28) to identify small molecules that bind directly to a truncated form of Tsg101 (amino acids 1-145) which contains the Ubiquitin E2 variant (UEV) ubiquitin-binding domain (FIG. 1A, 1B, 1C). […] This truncated Tsg101, called Tsg101-UEV, was used because full-length Tsg101 has significant solubility issues in aqueous solution. Tsg101 is an adaptor protein and thus lacks a readily deployable functional assay, making FTS a tractable approach to identify interacting compounds. FTS monitors protein thermal denaturation using SYPRO® Orange, a dye which fluoresces when bound to hydrophobic surfaces, which allows monitoring of the changes in hydrophobic surface exposure during protein denaturation (27). Since ligand binding affects protein thermal stability, it can be detected through modulation of protein thermal denaturation (melting) as a shift in melting temperature (Tm). Tsg101-UEV has a well-defined melting curve suitable for FTS. We used the FTS assay to identify compounds that bind to Tsg101-UEV.
# Fluorescence thermal shift (FTS) screening to identify small molecule binding to Tsg101-UEV. FTS using thermal shift elicited by the small molecule binding effect to protein stability. FTS monitors protein thermal denaturation using environment-sensitive dye Sypro® Orange which fluoresces when bound to hydrophobic surfaces, taking advantage of the changes in hydrophobic surface exposure in protein denaturation. Discovery of small molecule binding to target protein utilizes the observation that ligand binding affects protein thermal stability, and therefore can be detected through a shift in the protein's thermal denaturation (melting) temperature (Tm). We have employed FTS to reveal changes in thermodynamic properties of Tsg101 elicited by its interaction with a small molecule. […] A fluorescence dye Sypro® Orange (Invitrogen) was used for assay detection. The dye is excited at 473 nm and has a fluorescence emission at 610 nm. The dye binds to hydrophobic regions of a protein that are normally buried in a native protein structure. […] The Tsg101 fragment was premixed at a concentration of 2 μM with a 5× concentration of Sypro® Orange in HEPES buffer (100 mM HEPES, 150 mM NaCl, pH 7.5). Then 10 μl of the protein-dye mix was added to an assay plate and 10 to 50 nanoliters of compound, equal to 10 to 50 μM, were added with an acoustic transfer robot Echo550 (Labcyte, CA).
# HSV-2 [2] = assay: Transmission electron microscopy of HSV-2 infected Vero cells, particle counts; conditions: 105 tenatoprazole, 24 h, HSV-2, 80 cells
# Protocol: Vero cells grown on glass cover slips were infected with HSV-2 at MOI of 0.1 pfu/cell for 2 h and then treated for 24 h with 105 μM tenatoprazole or vehicle control.
# Transmission electron Microscopy. Vero cells on glass cover slips were infected with HSV-2 at a MOI of 0.1 for two hours. Then 105 μM of tenatoprazole or 18 μM Ilaprazole was added and cells incubated for 24 hours. Tissue samples were fixed in 0.1 M sodium cacodylate buffer pH 7.3 containing 2% paraformaldehyde and 2.5% glutaraldehyde and post-fixed with 2% osmium tetroxide 427 in unbuffered aqueous solution. The samples were rinsed with distilled water, en bloc stained with 3% uranyl acetate, rinsed with distilled water, dehydrated in ascending grades of ethanol, transitioned with propylene oxide, embedded in the resin mixture of Embed 812 kit and cured in a 60° C. oven. Samples were sectioned on a Leica Ultracut UC6 ultramicrotome. 1 μm thick sections were collected and stained with Toluidine Blue O and 70 nm sections were collected on 200 mesh copper grids; thin sections were stained with uranyl acetate and Reynolds lead citrate. Transmission electron microscopy (TEM) was performed on a FEI Tecnai Spirit G2.
# MEK4 = biological target: T2, MEK4 (Homo sapiens, UniProt P45985); assay: FTS assay on unrelated protein MEK4; conditions: specificity control
# T2 sequence (P45985 1-399): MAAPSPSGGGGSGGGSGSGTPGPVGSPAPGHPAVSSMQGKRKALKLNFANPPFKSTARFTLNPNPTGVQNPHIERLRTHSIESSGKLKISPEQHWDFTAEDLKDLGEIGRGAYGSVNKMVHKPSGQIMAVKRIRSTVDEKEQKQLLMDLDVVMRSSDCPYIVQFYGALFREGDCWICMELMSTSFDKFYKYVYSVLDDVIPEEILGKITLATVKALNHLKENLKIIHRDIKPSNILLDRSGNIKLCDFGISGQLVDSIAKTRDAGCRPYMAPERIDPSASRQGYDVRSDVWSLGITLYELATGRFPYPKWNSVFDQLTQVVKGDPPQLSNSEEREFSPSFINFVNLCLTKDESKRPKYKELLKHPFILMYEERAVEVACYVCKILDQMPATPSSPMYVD
# Source text: (§1) Fluorescence thermal shift (FTS) screening to identify small molecule binding to Tsg101-UEV. FTS using thermal shift elicited by the small molecule binding effect to protein stability. FTS monitors protein thermal denaturation using environment-sensitive dye Sypro® Orange which fluoresces when bound to hydrophobic surfaces, taking advantage of the changes in hydrophobic surface exposure in protein denaturation. Discovery of small molecule binding to target protein utilizes the observation that ligand binding affects protein thermal stability, and therefore can be detected through a shift in the protein's thermal denaturation (melting) temperature (Tm). We have employed FTS to reveal changes in thermodynamic properties of Tsg101 elicited by its interaction with a small molecule. The recombinant Tsg101 fragment (amino acids 1-145), prepared as described above in Materials and Methods (but without label) has a thermal unfolding profile suitable for using FTS as a primary screen assay in HTS. A fluorescence dye Sypro® Orange (Invitrogen) was used for assay detection. The dye is excited at 473 nm and has a fluorescence emission at 610 nm. The dye binds to hydrophobic regions of a protein that are normally buried in a native protein structure. […] Fluorescence was detected on a real-time PCR machine CFX384 (Bio-Rad Laboratories).
# HSV-1 = HSV-1 release from infected Vero cells, plaque assay
# ENO1 = ENO1 (Homo sapiens, UniProt P06733); assay: FTS assay on unrelated protein ENO1; conditions: specificity control
# Source text: as §1
# Vero cells = assay: Vero cell viability, 96 AQueous One Solution cell proliferation assay; type: cell-based
# Source text: Drug potency and cell toxicity. […] Cell toxicity experiments were repeated twice.
# DHPH = assay: FTS assay on unrelated protein DHPH; conditions: specificity control
# Source text: as §1
# HIV-1 = conditions: 293T cells in culture; cited from earlier work
# HSV-2 [3] = assay: HSV-2 release from infected Vero cells, plaque assay; conditions: for Titer of HSV-2 Media 48 h / Titer of HSV-2 Media, 24 h / Total Titer HSV-2 Media + Cell Lysate, 24 h: Vero cells
# [4] = Tenatoprazole 52 μM, Vero cells
# [5] = Tenatoprazole 79 μM, Vero cells
# [6] = Tenatoprazole 105 μM, Vero cells
# [7] = Tenatoprazole 131 μM, Vero cells
# [8] = Tenatoprazole 157 μM, Vero cells
# Chain of ENO1 (P06733 whole entry): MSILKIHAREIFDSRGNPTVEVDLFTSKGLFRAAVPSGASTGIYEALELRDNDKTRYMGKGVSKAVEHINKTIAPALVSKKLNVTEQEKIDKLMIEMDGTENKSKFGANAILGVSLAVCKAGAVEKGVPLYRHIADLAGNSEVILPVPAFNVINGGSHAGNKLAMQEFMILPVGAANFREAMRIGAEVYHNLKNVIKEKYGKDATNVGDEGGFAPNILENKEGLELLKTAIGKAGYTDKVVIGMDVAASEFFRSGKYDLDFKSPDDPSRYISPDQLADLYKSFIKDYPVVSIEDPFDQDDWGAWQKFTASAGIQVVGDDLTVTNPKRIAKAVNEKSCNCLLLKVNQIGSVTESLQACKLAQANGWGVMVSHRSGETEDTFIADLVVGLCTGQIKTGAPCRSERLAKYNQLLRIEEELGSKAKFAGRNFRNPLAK
substance,measurement,setting,value
Tenatoprazole,Thermal shift (Tm shift) of Tsg101-UEV caused by compound,"[1]; FTS dose response, result in words",dose-dependent shift in the Tm
same,Tm shift of Tsg101 in the FTS assay on addition of DTT,[1]; with reducing agent DTT,abolishes the Tm shift
same,Average number of virus particles in the nucleus,HSV-2 [2],31 particles
same,Virus particles in the cytoplasm,HSV-2 [2],did not detect virus particles
same,Tm shift of MEK4,MEK4,did not observe a Tm shift
same,"Titer of HSV-1 Media, 48 H",HSV-1; [4],1.4E+07
same,"Titer of HSV-1 Media, 24 h",HSV-1; [4],2.90E+05
same,"Titer of HSV-1 Media, 48 H",HSV-1; [5],8.0E+06
same,"Titer of HSV-1 Media, 24 h",HSV-1; [5],1.30E+05
same,"Titer of HSV-1 Media, 48 H",HSV-1; [6],5.3E+05
same,"Titer of HSV-1 Media, 24 h",HSV-1; [6],5.40E+04
same,"Titer of HSV-1 Media, 48 H",HSV-1; [7],3.5E+04
same,"Titer of HSV-1 Media, 24 h",HSV-1; [7],2.40E+03
same,"Titer of HSV-1 Media, 48 H",HSV-1; [8],1.0E+02
same,"Titer of HSV-1 Media, 24 h",HSV-1; [8],1.30E+02
same,Drop of HSV-1 in released infectious virus,"HSV-1; Vero cells, 24 hours after infection",3 log
same,Duration of inhibition of virus release,"HSV-1; against either virus (HSV-1, HSV-2), data not shown",began to fall off after 48 h
same,EC50,"HSV-1; read-out: EC50, inhibition of HSV-1 release, Vero cells, 24 h, range stated jointly for HSV-1 and HSV-2",48 to 80 µM
same,Tm shift of ENO1,ENO1,did not observe a Tm shift
same,Cell toxicity at concentrations that block virus release,"Vero cells; 24 h, result in words",nontoxic
same,"Viability of OD 490 nm, 24 h",Vero cells; Tenatoprazole 52 μM,1.724
same,"Viability of OD 490 nm, 24 h",Vero cells; Tenatoprazole 60 μM,1.759
same,"Viability of OD 490 nm, 24 h",Vero cells; Tenatoprazole 79 μM,1.742
same,"Viability of OD 490 nm, 24 h",Vero cells; Tenatoprazole 105 μM,1.777
same,"Viability of OD 490 nm, 24 h",Vero cells; Tenatoprazole 131 μM,1.714
same,"Viability of OD 490 nm, 24 h",Vero cells; Tenatoprazole 200 μM,0.872
same,Tm shift of DHPH,DHPH,did not observe a Tm shift
same,Inhibition of release of infectious HIV-1 from 293T cells (earlier report),HIV-1,quantitatively inhibit
same,Titer of HSV-2 Media 48 h,HSV-2 [3]; Tenatoprazole 52 μM,1.30E+06
same,"Titer of HSV-2 Media, 24 h",HSV-2 [3]; Tenatoprazole 52 μM,6.50E+04
same,"Total Titer HSV-2 Media + Cell Lysate, 24 h",HSV-2 [3]; Tenatoprazole 52 μM,4.00E+06
same,Titer of HSV-2 Media 48 h,HSV-2 [3]; Tenatoprazole 60 μM,5.60E+04
same,"Titer of HSV-2 Media, 24 h",HSV-2 [3]; Tenatoprazole 60 μM,1.00E+03
same,"Total Titer HSV-2 Media + Cell Lysate, 24 h",HSV-2 [3]; Tenatoprazole 60 μM,2.30E+04
same,Titer of HSV-2 Media 48 h,HSV-2 [3]; Tenatoprazole 79 μM,4.80E+03
same,"Titer of HSV-2 Media, 24 h",HSV-2 [3]; Tenatoprazole 79 μM,2.50E+02
same,"Total Titer HSV-2 Media + Cell Lysate, 24 h",HSV-2 [3]; Tenatoprazole 79 μM,1.50E+03
same,Titer of HSV-2 Media 48 h,HSV-2 [3]; Tenatoprazole 105 μM,1.80E+02
same,"Titer of HSV-2 Media, 24 h",HSV-2 [3]; Tenatoprazole 105 μM,0.00E+00
same,"Total Titer HSV-2 Media + Cell Lysate, 24 h",HSV-2 [3]; Tenatoprazole 105 μM,6.00E+02
same,"Titer of HSV-2 Media, 24 h",HSV-2 [3]; Tenatoprazole 131 μM,0.00E+00
same,"Total Titer HSV-2 Media + Cell Lysate, 24 h",HSV-2 [3]; Tenatoprazole 131 μM,3.00E+02
same,EC50,"HSV-2 [3]; read-out: EC50 (μM) Inhibition of HSV-2 Budding at 24 h, HSV-2 infected Vero cells, virus released into media, plaque assay",84 µM

# Reference: patent publication US20230265069A1, “Small Molecule Inhibitors That Block the Budding of Enveloped Viruses” (priority 2020, published 2023)
